# Measurements published in patent US20250270648A1, “MOLECULAR SIGNATURE FOR ASSESSING THE RESPONSIVENESS OF CANCER TO MITOCHONDRIA-TARGETED ANTIOXIDANTS” (UNIVERSITÉ CATHOLIQUE DE LOUVAIN, priority 2021, published 2025).
# Tests used:
# [1] = system: murine 4T1 breast cancer cells; assay: Cell viability, crystal violet; format: cell-based, mouse; details: increasing doses of cisplatin ±100 nM MitoQ, 48 h
# Experimental: […] The solution was carefully removed and plates were washed twice with water. After drying protected by light, cells were resuspended in 50 μl DMSO and the plates were read with a Victor X4 plate reader (Perkin®).
# [2] = system: MDA-MB-231 cells; assay: Western blotting (AMPK, EMT proteins); format: cell-based, human; details: 48 h
# Experimental: (§1) For western blotting (WB), whole-protein extracts from MDA-MB-231, SkBr3 and MDA-MB-436 cells were prepared using RIPA buffer (50 mM Tris pH 7.4, 150 mM NaCl, 1% Triton-X-100, 0.05% sodium deoxycholate, 1 mM EDTA, 0.1% SDS, protease inhibitor cocktail and PhosSTOP Phosphatase Inhibitor Cocktail (Roche®)), centrifuged at 10,000×g for 10 min, and quantified using the Bio-Rad® Protein Assay. Proteins (50 μg for MDA-MB-231 and 100 μg for SkBr3 and MDA-MB-436 cells) were loaded into each lane of a 10-12% polyacrylamide gel in the presence of SDS, and were allowed to separate at 120 V for 90 min. The transfer of proteins onto nitrocellulose membranes was performed using an iBlot 2 Dry Blotting System (Thermo Fisher Scientific®) with the 7 min P0 program. Membranes were then blocked using 5% (w/v) powdered milk for 1 h, and incubated overnight at 4° C. with a primary antibody (Table 4).
# (§2) β-actin served as a loading control. Immunodetection was performed at room temperature for 1 h using as secondary antibodies a horseradish peroxidase-conjugated goat anti-rabbit (Jackson®, Cat #111-035-003) and goat anti-mouse (Jackson®, Cat #115-035-003) in PBS-Tween containing 5% (w/v) milk or BSA. Detection was performed with ECL reagent (Amersham®, Cat #RPN2209), and protein bands were visualized and captured using ECL imager 600 (Amersham®). They were analyzed using the Image J software (Java).
# [3] = system: SkBr3 cells; assay: Western blotting (AMPK, EMT proteins); format: cell-based, human; details: 48 h
# Experimental: as §1, §2
# [4] = system: MDA-MB-231 cells; assay: Direct cell counting, MitoQ alone; format: cell-based, human
# Experimental: (§3) To probe the effects of MitoQ alone on cell numbers, MDA-MB-231, SkBr3, MDA-MB-436 or MCF10A (2,500-10,000 cells/well) cells were plated in 96-well plates and treated with increasing concentrations of MitoQ. At each time point, the number of cells per well was measured using a SpectraMax i3 spectrophotometer equipped with a MiniMax™ imaging cytometer.
# [5] = system: MDA-MB-436 cells; assay: Direct cell counting, MitoQ alone; format: cell-based, human; details: increasing doses of MitoQ (0 to 500 nM)
# Experimental: as §3
# [6] = system: SkBr3 cells; assay: Direct cell counting, MitoQ alone; format: cell-based, human
# Experimental: as §3
# [7] = system: MDA-MB-231 human breast cancer cells; assay: Seahorse oximetry, oxygen consumption rates (OCRs); format: cell-based; details: MitoQ 100 nM, 48 h
# Experimental: Oxygen consumption rates (OCRs) were determined on a Seahorse XF96 bioenergetic analyzer using the XF cell Mito stress kit (Agilent Technologies®), according to manufacturer's recommendations. Briefly, MDA-MB-231 (10^4 cells/well), SkBr3 (10^4 cells/well), MDA-MB-436 (10^4 cells/well) or MCF10A (10^5 cells/well) were plated on XF96 culture plates 16 h before experiments in DMEM containing 10% FBS, and treated ±MitoQ for 48 h. On the day of analysis, culture media were replaced by DMEM containing 10 mM glucose, 2 mM glutamine, 1.85 g/L NaCl, 3 mg/L phenol red, pH 7.4. Cells were incubated for 1 h in a CO2-free incubator before analysis. Sequentially, basal OCR was acquired without treatment; ATP-linked OCR after the addition of 1 μM of ATP synthase inhibitor oligomycin; maximal OCR after mitochondrial potential disruption using 1 μM of ionophore carbonyl cyanide-4-(trifluoromethoxy) phenylhydrazone (FCCP); and non-mitochondrial OCR after the addition of 0.5 μM of Complex I inhibitor rotenone together with 0.5 μM of Complex III inhibitor antimycin A. All data were normalized by total protein content (Bio-Rad® Protein Assay; catalogue #5000006) measured right after oximetry. Mitochondrial OCRs (mtOCRs) were calculated by subtracting non-mitochondrial OCRs to the corresponding basal, maximal and ATP-linked OCRs.
# [8] = system: MDA-MB-231 human breast cancer cells; assay: Mitochondrial potential, JC-10; format: cell-based; details: 48 h
# Experimental: (§4) The mitochondrial potential (ΔΨ) was measured using JC-10 Mitochondrial Membrane Potential Assay Kit (Abcam®, #ab112134), according to manufacturer's recommendations. Briefly, MDA-MB-231 (10^4 cells/well), SkBr3 (10^4 cells/well), MDA-MB-436 (10^4 cells/well) or MCF10A (10^5 cells/well) cells were seeded in 96-well plates and treated for 48 h±MitoQ. Cells were then washed twice and incubated with JC-10 (1× solution) for 45 min. Fluorescence intensities were measured at 490/525 nm and […] using a SpectraMax i3 spectrophotometer equipped with a MiniMax imaging cytometer (Molecular Devices®).
# [9] = system: SkBr3 human breast cancer cells; assay: Mitochondrial potential, JC-10; format: cell-based; details: indicated doses of MitoQ, 48 h
# Experimental: as §4
# [10] = system: MMTV-PyMT mice; assay: Spontaneous metastatic breast cancer, FEC ±MitoQ; format: in vivo, mouse; details: 6 weeks
# From the text: Female FVB/N-Tg(MMTV-PyMT)634Mul/J (MMTV-PyMT) mice that express the polyomavirus middle T antigen spontaneously develop orthotropic multifocal breast adenocarcinomas that spontaneously disseminate metastases to the lungs during mouse lifetime. For spontaneous metastasis assays, female MMTV-PyMT mice (The Jackson Laboratory) were daily observed for signs of spontaneous primary tumors starting at 6 weeks of age. Once tumors became palpable, 4 additional weeks were waited to mimic a clinical time frame between first tumor signs and treatment initiation. Ten weeks-old mice with primary tumors of ˜0.8 cm in diameter received a single dose of FEC chemotherapy (100 mg/Kg 5-FU, 5 mg/Kg epirubicin, 100 mg/Kg cyclophosphamide), a clinically relevant neoadjuvant or adjuvant chemotherapeutic combination. Animals were then randomly assigned to a group receiving daily 18 mg/Kg MitoQ or an equal volume of vehicle by oral gavage. They were sacrificed at 16 weeks-old, and the lungs insufflated with Indian ink for metastasis quantification as described above. Primary tumors were collected, weighted, and processed for RT-qPCR.
structure (smiles),measurement,setting,value
COC1=C(OC)C(=O)C(CCCCCCCCCC[P+](c2ccccc2)(c2ccccc2)c2ccccc2)=C(C)C1=O [MitoQ],"cancer cell killing activity, cisplatin combined with MitoQ",[1],did not interfere
same,"5′ AMP-activated protein kinase (AMPK), P-T172-AMPK/total AMPK",[2]; MitoQ 100 nM,activation
same,"SNAIL, ZEB1, Twist1 and E-cadherin protein expression",[2]; MitoQ 500 nM,decreased
same,AMPK activation,[3]; MitoQ 100 nM,did not significantly activate
same,SNAIL protein expression,[3]; MitoQ 500 nM,decreased
same,MitoQ dose starting from which cell number is reduced,[4]; doses 0 to 500 nM,≥ 500 nM
same,"cell numbers, dose dependence",[4]; increasing doses of MitoQ,Dose-dependent decreases
same,cell numbers,[5],dose-dependently reduced
same,MitoQ dose from which cell numbers started to decrease,[6]; doses 0 to 500 nM,≥ 250 nM
same,"cell numbers, dose dependence",[6]; increasing doses of MitoQ,Dose-dependent decreases
same,"basal, maximal and ATP-linked oxygen consumption rates (OCRs)",[7],decreased
same,mitochondrial potential (Δψ),[8]; MitoQ 100 nM,decreased
same,"Δψ, dose dependence",[8]; indicated doses of MitoQ,dose-dependent decreases
same,"Δψ, dose dependence",[9],dose-dependent decreases
same,number of surface lung metastases,[10]; FEC + MitoQ 18 mg/kg daily oral vs FEC + vehicle,significantly repressed
same,total primary tumor weight,"[10]; FEC + MitoQ 18 mg/kg daily oral vs FEC + vehicle, P=0.1395",not altered
same,mice metastasis-free,"[10]; FEC + MitoQ 18 mg/kg daily oral, all 15 FEC+ control mice had metastases",4 of 21
